Measurements published in US20260116868A1 (Arcus Biosciences, Inc., priority 2023, published 2026).

Target: T1, Cbl-b (Homo sapiens, UniProt Q13191)
T1 construct: biotin (biotinylated protein)
Assay: Cbl-b probe displacement HTRF binding assay
Details: 0.4 nM Cbl-b, 150 nM BODIPY probe
Method: The affinity with which compounds of the present disclosure bind to Cbl-b was assessed using probe displacement homologous time resolved fluorescence (HTRF) assays. The assays used a BODIPY™ conjugated probe (Example 54 from WO 2020264398) and biotinylated Cbl-b. The assays were performed in assay buffer consisting of 20 mM Hepes, 150 mM NaCl, 0.01% Triton X-100, 0.5 mM TCEP, 0.01% BSA. On the day of the assay, a 20 point, 1:2 master serial dilution of each compound was prepared in DMSO to span a final concentration range of […] to 0 nM. Two hundred nanoliters of diluted compound was added to each well of a 384-well plate. Fifteen microliters of biotinylated- Cbl-b resuspended in assay buffer were added to each well and the plate incubated for 60 minutes at room temperature prior to addition of 5 μL of BODIPY™ probe in assay buffer. Final assay conditions included 0.4 nM of Cbl-b and 150 nM of BODIPY™ probe. After a further 15 minutes of incubation at room temperature, 5 μl of Streptavidin-Terbium cryptate reagent at 5-fold final concentration was added to each well of the 384-well plate. Binding of a probe to Cbl-b results in an increase of HTRF signal. HTRF signal was measured by Envision plate reader, while competition of a compound of the present disclosure with probe results in a decrease of signal. Percentage maximum activity in each test well was calculated based on DMSO (maximum activity, 0% displacement) and no protein control wells (baseline activity, 100% displacement). Binding affinity was determined from a dose response curve fitted using a standard four parameter fit equation. See Table 7 for data for compounds (Cbl-b Binding (IC50)).

T1 sequence (Q13191 whole entry, species assumed): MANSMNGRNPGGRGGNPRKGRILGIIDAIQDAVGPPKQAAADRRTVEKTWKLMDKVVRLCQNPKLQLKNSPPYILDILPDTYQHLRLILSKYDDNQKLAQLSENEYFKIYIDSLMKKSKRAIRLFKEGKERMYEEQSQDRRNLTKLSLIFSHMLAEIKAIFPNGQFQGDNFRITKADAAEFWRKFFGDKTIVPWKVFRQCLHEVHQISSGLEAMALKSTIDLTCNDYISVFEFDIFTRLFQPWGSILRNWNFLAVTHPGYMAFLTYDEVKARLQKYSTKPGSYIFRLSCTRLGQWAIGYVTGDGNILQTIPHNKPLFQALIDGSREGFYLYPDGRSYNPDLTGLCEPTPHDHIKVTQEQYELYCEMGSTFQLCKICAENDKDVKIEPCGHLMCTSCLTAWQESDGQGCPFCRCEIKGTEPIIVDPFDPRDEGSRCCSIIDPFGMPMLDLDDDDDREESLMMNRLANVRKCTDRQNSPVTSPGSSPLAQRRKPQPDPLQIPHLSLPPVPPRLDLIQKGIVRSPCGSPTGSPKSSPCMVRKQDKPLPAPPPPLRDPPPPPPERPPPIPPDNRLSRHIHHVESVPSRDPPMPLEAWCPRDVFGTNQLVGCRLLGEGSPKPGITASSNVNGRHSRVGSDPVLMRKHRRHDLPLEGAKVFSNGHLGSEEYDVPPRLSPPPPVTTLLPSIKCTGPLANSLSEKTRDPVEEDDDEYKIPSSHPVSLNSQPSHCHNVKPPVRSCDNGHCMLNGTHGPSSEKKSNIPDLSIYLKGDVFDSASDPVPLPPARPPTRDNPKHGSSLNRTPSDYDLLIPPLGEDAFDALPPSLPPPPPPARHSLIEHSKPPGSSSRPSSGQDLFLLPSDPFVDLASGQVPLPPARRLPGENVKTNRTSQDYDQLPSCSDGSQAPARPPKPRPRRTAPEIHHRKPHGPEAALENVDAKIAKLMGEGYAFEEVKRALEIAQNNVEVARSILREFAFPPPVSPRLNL

IC50, < 100 nM:
C=CCn1cc(CN2CCC[C@H](C)C2)cc(C(=O)Nc2cccc(C3(c4nncn4C)CC(C)C3)c2)c1=O (mixture of isomers) [Example 77, N-[3-[3-methyl-1-(4-methyl-1,2,4-triazol-3-yl)cyclobutyl]phenyl]-5-[[(3S)-3-methylpiperidin-1-yl]methyl]-2-oxo-1-prop-2-enylpyridine-3-carboxamide]
CC(C)Oc1cc(-c2ccc(C#N)cc2C(=O)N2CC(F)(F)C2)cc(NC(=O)c2cc(CNC(C)C3CC3)cn(C3CC3)c2=O)n1 (stereo in doubt) [Example 140, N-(4-{4-cyano-2-[(3,3-difluoro-1-azetidinyl)carbonyl]phenyl}-6-isopropoxy-2-pyridyl)-1-cyclopropyl-5-{[(S)-1-cyclopropylethylamino]methyl}-2-oxo-1,2-dihydronicotinamide]
CC(C)Oc1cc(-c2ccc(C#N)cc2C(=O)N2CC(F)(F)C2)cc(NC(=O)c2cc(CNC[C@@H]3CCCO3)cn(C3CC3)c2=O)n1 [Example 96, N-(4-{4-cyano-2-[(3,3-difluoro-1-azetidinyl)carbonyl]phenyl}-6-isopropoxy-2-pyridyl)-5-[({[(S)-tetrahydro-2-furyl]methyl}amino)methyl]-1-cyclopropyl-2-oxo-1,2-dihydronicotinamide]
CC(C)CNCc1cc(C(=O)Nc2cc(-c3ccc(C#N)cc3C(=O)N3CC(F)(F)C3)cc(OC(C)C)n2)c(=O)n(C2CC2)c1 [Example 97, N-(4-{4-cyano-2-[(3,3-difluoro-1-azetidinyl)carbonyl]phenyl}-6-isopropoxy-2-pyridyl)-1-cyclopropyl-5-[(isobutylamino)methyl]-2-oxo-1,2-dihydronicotinamide]
CC(C)Oc1cc(-c2ccc(OC(F)F)cc2C(=O)N2CC(F)(F)C2)cc(NC(=O)c2cc(CN[C@@H](C)C3CCC3)cn(C3CC3)c2=O)n1 [Example 98]
CC(C)CNCc1cc(C(=O)Nc2cc(-c3ccc(OC(F)F)cc3C(=O)N3CC(F)(F)C3)cc(OC(C)C)n2)c(=O)n(C2CC2)c1 [Example 99, N-(4-{2-[(3,3-difluoro-1-azetidinyl)carbonyl]-4-difluoromethoxyphenyl}-6-isopropoxy-2-pyridyl)-1-cyclopropyl-5-[(isobutylamino)methyl]-2-oxo-1,2-dihydronicotinamide]
CC(C)Oc1cc(-c2ccc(C#N)cc2C(=O)N2CC(F)(F)C2)cc(NC(=O)c2cc(CN[C@@H](C)C3CCC3)cn(C)c2=O)n1 [Example 100, N-[4-[4-cyano-2-(3,3-difluoroazetidine-1-carbonyl)phenyl]-6-propan-2-yloxypyridin-2-yl]-5-[[[(1S)-1-cyclobutylethyl]amino]methyl]-1-methyl-2-oxopyridine-3-carboxamide]
CC(C)Oc1cc(-c2c(F)cc(C#N)cc2C(=O)N2CC(F)(F)C2)cc(NC(=O)c2cc(CNC[C@@H]3CCCO3)cn(C3CC3)c2=O)n1 [Example 101, N-[4-[4-cyano-2-(3,3-difluoroazetidine-1-carbonyl)-6-fluorophenyl]-6-propan-2-yloxypyridin-2-yl]-1-cyclopropyl-2-oxo-5-[[[(2S)-oxolan-2-yl]methylamino]methyl]pyridine-3-carboxamide]
CCNc1cc(-c2ccc(OC(F)F)cc2C(=O)N2CC(F)C2)cc(NC(=O)c2cc(CN[C@@H](C)C3CCC3)cn(C)c2=O)n1 [Example 103]
CCOc1cc(-c2ccc(OC(F)F)cc2C(=O)N2CC(F)C2)cc(NC(=O)c2cc(CNC[C@H](C)OC)cn(C3CC3)c2=O)n1 [Example 104, N-(4-{4-Difluoromethoxy-2-[(3-fluoro-1-azetidinyl)carbonyl]phenyl}-6-ethoxy-2-pyridyl)-5-{[(S)-2-methoxypropylamino]methyl}-1-cyclopropyl-2-oxo-1,2-dihydronicotinamide]
Cn1cc(CNC[C@@H]2CCCCO2)cc(C(=O)Nc2cc(-c3ccc(Cl)cc3C(=O)N3CC(F)(F)C3)cc(C3CC3)n2)c1=O [Example 108, N-[4-[4-chloro-2-(3,3-difluoroazetidine-1-carbonyl)phenyl]-6-cyclopropylpyridin-2-yl]-1-methyl-5-[[[(2S)-oxan-2-yl]methylamino]methyl]-2-oxopyridine-3-carboxamide]
CC(C)CNCc1cc(C(=O)Nc2cc(-c3ccc(OC(F)F)cc3C(=O)N3CC(F)(F)C3)cc(C3CC3)n2)c(=O)n(C)c1 [Example 109, N-[6-cyclopropyl-4-[2-(3,3-difluoroazetidine-1-carbonyl)-4-(difluoromethoxy)phenyl]pyridin-2-yl]-1-methyl-5-[(2-methylpropylamino)methyl]-2-oxopyridine-3-carboxamide]
Cn1cc(CNC[C@@H]2COCCO2)cc(C(=O)Nc2cc(-c3ccc(OC(F)F)cc3C(=O)N3CC(F)(F)C3)cc(C3CC3)n2)c1=O [Example 110, N-(6-cyclopropyl-4-{2-[(3,3-difluoro-1-azetidinyl)carbonyl]-4-difluoromethoxyphenyl}-2-pyridyl)-5-[({[(R)-1,4-dioxan-2-yl]methyl}amino)methyl]-1-methyl-2-oxo-1,2-dihydronicotinamide]
Cn1cc(CNC[C@@H]2CCCCO2)cc(C(=O)Nc2cc(-c3ccc(OC(F)F)cc3C(=O)N3CC(F)(F)C3)cc(C3CC3)n2)c1=O [Example 111, N-[6-cyclopropyl-4-[2-(3,3-difluoroazetidine-1-carbonyl)-4-(difluoromethoxy)phenyl]pyridin-2-yl]-1-methyl-5-[[[(2S)-oxan-2-yl]methylamino]methyl]-2-oxopyridine-3-carboxamide]
CC(C)Oc1cc(-c2ccc(OC(F)F)cc2C(=O)N2CC(F)(F)C2)cc(NC(=O)c2cc(CN[C@@H](C)C3CCC3)cn(C)c2=O)n1 [Example 112]
CO[C@@H](C)CNCc1cc(C(=O)Nc2cc(-c3ccc(OC(F)F)cc3C(=O)N3CC(F)(F)C3)cc(OC(C)C)n2)c(=O)n(C)c1 [Example 113, N-(4-{2-[(3,3-difluoro-1-azetidinyl)carbonyl]-4-difluoromethoxyphenyl}-6-isopropoxy-2-pyridyl)-5-{[(S)-2-methoxypropylamino]methyl}-1-methyl-2-oxo-1,2-dihydronicotinamide]
CC(C)Oc1cc(-c2ccc(OC(F)F)cc2C(=O)N2CC(F)(F)C2)cc(NC(=O)c2cc(CN[C@@H](C)C(C)C)cn(C)c2=O)n1 [Example 114]
CC(C)Oc1cc(-c2ccc(OC(F)F)cc2C(=O)N2CC(F)(F)C2)cc(NC(=O)c2cc(CN[C@@H](C)C3CC3)cn(C)c2=O)n1 [Example 115, N-(4-{2-[(3,3-difluoro-1-azetidinyl)carbonyl]-4-difluoromethoxyphenyl}-6-isopropoxy-2-pyridyl)-5-{[(S)-1-cyclopropylethylamino]methyl}-1-methyl-2-oxo-1,2-dihydronicotinamide]
CO[C@@H](C)[C@H](C)NCc1cc(C(=O)Nc2cc(-c3ccc(OC(F)F)cc3C(=O)N3CC(F)(F)C3)cc(OC(C)C)n2)c(=O)n(C)c1 [Example 116, N-(4-{2-[(3,3-difluoro-1-azetidinyl)carbonyl]-4-difluoromethoxyphenyl}-6-isopropoxy-2-pyridyl)-5-{[(1S,2S)-2-methoxy-1-methylpropylamino]methyl}-1-methyl-2-oxo-1,2-dihydronicotinamide]
CO[C@@H](C)CNCc1cc(C(=O)Nc2cc(-c3ccc(C#N)cc3C(=O)N3CC(F)(F)C3)cc(OC(C)C)n2)c(=O)n(C)c1 [Example 117, N-(4-{4-cyano-2-[(3,3-difluoro-1-azetidinyl)carbonyl]phenyl}-6-isopropoxy-2-pyridyl)-5-{[(S)-2-methoxypropylamino]methyl}-1-methyl-2-oxo-1,2-dihydronicotinamide]
CCOc1cc(-c2c(F)cc(C#N)cc2C(=O)N2CC(F)(F)C2)cc(NC(=O)c2cc(CNC[C@@H]3CCCO3)cn(C)c2=O)n1 [Example 118, N-[4-[4-cyano-2-(3,3-difluoroazetidine-1-carbonyl)-6-fluorophenyl]-6-ethoxypyridin-2-yl]-1-methyl-2-oxo-5-[[[(2S)-oxolan-2-yl]methylamino]methyl]pyridine-3-carboxamide]
CCOc1cc(-c2c(F)cc(C#N)cc2C(=O)N2CC(F)(F)C2)cc(NC(=O)c2cc(CN[C@@H](C)C3CC3)cn(C)c2=O)n1 [Example 119, N-[4-[4-cyano-2-(3,3-difluoroazetidine-1-carbonyl)-6-fluorophenyl]-6-ethoxypyridin-2-yl]-5-[[[(1S)-1-cyclopropylethyl]amino]methyl]-1-methyl-2-oxopyridine-3-carboxamide]
CCOc1cc(-c2c(F)cc(C#N)cc2C(=O)N2CC(F)(F)C2)cc(NC(=O)c2cc(CNC[C@H](C)OC)cn(C)c2=O)n1 [Example 120, N-[4-[4-cyano-2-(3,3-difluoroazetidine-1-carbonyl)-6-fluorophenyl]-6-ethoxypyridin-2-yl]-5-[[[(2S)-2-methoxypropyl]amino]methyl]-1-methyl-2-oxopyridine-3-carboxamide]
